Marks after values point to notes of the source that are not given here. Values belong to the molecule of their own block, whether it stands above or below them.
Key:
enzyme of SEQ ID NO:1 [1] = assay: Screening of carbonyl-containing compounds with ammonia as amine source (specific activity, absorbance at 340 nm); type: biochemical, Mycobacterium smegmatis; conditions: for Specific activity, SEQ ID NO: 1: 10 mM of carbonyl-containing compound, ammonia as amine source; for activity of enzyme of SEQ ID NO:1 towards the substrate (in words): reductive amination
Method: (§1) All the reactions were conducted at 25° C. in spectrophotometric cell (10 mm light path). To a mixture of ammonium formate buffer (2 M NH4HCO2/NH4OH, pH 9.5), NADH or NADPH (0.2 mM) and an appropriate amount of purified enzyme was added.

enzyme of SEQ ID NO:3 [2] = assay: as above; type: biochemical, Microbacterium sp. MA1; conditions: for Specific activity, SEQ ID NO: 3: 10 mM of carbonyl-containing compound, ammonia as amine source; for activity of enzyme of SEQ ID NO:3 towards the substrate (in words): reductive amination
Method: as §1

enzyme of SEQ ID NO:2 [3] = assay: as above; type: biochemical, Cystobacter fuscus DSM 2262; conditions: for activity of enzyme of SEQ ID NO:2 towards the substrate (in words): reductive amination; for Specific activity, SEQ ID NO: 2: 10 mM of carbonyl-containing compound, ammonia as amine source
Method: as §1

enzyme of SEQ ID NO:4 [4] = assay: as above; type: biochemical, Aminomonas paucivorans DSM 12260; design: key to Detection of the expected compound, SEQ ID NO: 4: d: detected activity; nd: not detected activity; conditions: for activity of enzyme of SEQ ID NO:4 towards the substrate (in words): reductive amination
Method: (§2) All the reactions were conducted at 25° C. in spectrophotometric cell (10 mm light path). To a mixture of ammonium formate buffer (2 M NH4HCO2/NH4OH, pH 9.5), NADH or NADPH (0.2 mM) and an appropriate amount of purified enzyme was added. Carbonyl-containing compound (5 or 10 mM) is then added to initiate the reaction (reaction final volume 100 μL). The initial slope measured at 340 nm determined the specific activity of the enzyme according to Beer-Lambert's law and the molar absorptivity of β-NADH (ϵ=6298 M^−1 cm^−1).

PheDH-AmDH K77S/N276L = PheDH-AmDH K77S/N276L (Pseudobacillus badius, UniProt Q59224, K78S/N277L); conditions: prior-art engineered enzyme; cited from earlier work
Sequence of PheDH-AmDH K77S/N276L (Q59224 whole entry K78S/N277L): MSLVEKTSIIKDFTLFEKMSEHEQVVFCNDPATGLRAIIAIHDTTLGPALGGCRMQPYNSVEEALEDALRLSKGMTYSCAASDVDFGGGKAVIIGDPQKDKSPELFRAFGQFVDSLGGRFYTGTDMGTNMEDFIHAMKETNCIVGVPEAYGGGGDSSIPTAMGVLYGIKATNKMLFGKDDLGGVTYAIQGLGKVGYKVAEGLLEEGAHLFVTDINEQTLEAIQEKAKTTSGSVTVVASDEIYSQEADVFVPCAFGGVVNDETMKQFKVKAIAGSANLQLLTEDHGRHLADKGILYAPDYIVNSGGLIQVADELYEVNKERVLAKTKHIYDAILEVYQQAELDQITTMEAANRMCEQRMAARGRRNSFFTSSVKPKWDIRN
enzyme of SEQ ID NO:1 [5] = assay: Screening of carbonyl-containing compounds with methylamine as amine source; type: biochemical, Mycobacterium smegmatis; conditions: preliminary
Method: as §2, with “of TRIS.HCl” for “of ammonium formate”, “buffer (50 mM,” for “buffer (2 M NH4HCO2/NH4OH,”, “NADH and” for “NADH or”, “NADPH (0.1 mM each), methylamine (500” for “NADPH (0.2”, “(5” for “(5 or 10”

enzyme of SEQ ID NO:2 [6] = assay: as above; type: biochemical, Cystobacter fuscus DSM 2262; conditions: preliminary
Method: as §2, with “of TRIS.HCl” for “of ammonium formate”, “buffer (50 mM,” for “buffer (2 M NH4HCO2/NH4OH,”, “NADH and” for “NADH or”, “NADPH (0.1 mM each), methylamine (500” for “NADPH (0.2”, “(5” for “(5 or 10”

enzyme of SEQ ID NO:3 [7] = assay: as above; type: biochemical, Microbacterium sp. MA1; conditions: preliminary
Method: as §2, with “of TRIS.HCl” for “of ammonium formate”, “buffer (50 mM,” for “buffer (2 M NH4HCO2/NH4OH,”, “NADH and” for “NADH or”, “NADPH (0.1 mM each), methylamine (500” for “NADPH (0.2”, “(5” for “(5 or 10”

enzyme of SEQ ID NO:4 [8] = assay: as above; type: biochemical, Aminomonas paucivorans DSM 12260; conditions: preliminary
Method: as §2, with “of TRIS.HCl” for “of ammonium formate”, “buffer (50 mM,” for “buffer (2 M NH4HCO2/NH4OH,”, “NADH and” for “NADH or”, “NADPH (0.1 mM each), methylamine (500” for “NADPH (0.2”, “(5” for “(5 or 10”

enzyme of SEQ ID NO:5 = assay: as above; type: biochemical, Mycobacterium vaccae ATCC 25954; conditions: preliminary
Method: as §2, with “of TRIS.HCl” for “of ammonium formate”, “buffer (50 mM,” for “buffer (2 M NH4HCO2/NH4OH,”, “NADH and” for “NADH or”, “NADPH (0.1 mM each), methylamine (500” for “NADPH (0.2”, “(5” for “(5 or 10”

enzyme of SEQ ID NO:1 [9] = assay: Reduction of cyclic imine substrates; type: biochemical, Mycobacterium smegmatis
enzyme of SEQ ID NO:2 [10] = assay: Reduction of cyclic imine substrates; type: biochemical, Cystobacter fuscus DSM 2262
enzyme of SEQ ID NO:3 [11] = assay: Reduction of cyclic imine substrates; type: biochemical, Microbacterium sp. MA1
enzyme of SEQ ID NO:4 [12] = assay: Reduction of cyclic imine substrates; type: biochemical, Aminomonas paucivorans DSM 12260
[13] = 0.2 mM NADPH (best of NADH/NADPH)
[14] = 0.2 mM NADH (best of NADH/NADPH)
[15] = 0.2 mM NADH (best of NADH/NADPH), listed as drawing 150
[16] = methylamine (500 mM) as amine source, NADH/NADPH (0.1 mM each), carbonyl-containing compound 5 mM
[17] = 0.2 mM NADPH (best of NADH/NADPH), listed as drawing 134

Specific activity, SEQ ID NO: 1 (enzyme of SEQ ID NO:1 [1]; [13]): 9.7^b mU.mg^-1 | Specific activity, SEQ ID NO: 3 (enzyme of SEQ ID NO:3 [2]; [13]): 61.6^b mU.mg^-1
Compound: CC1CC(=O)CC(C)C1 (stereo not shown)

Specific activity, SEQ ID NO: 1 (enzyme of SEQ ID NO:1 [1]; [13]): 65.2^b mU.mg^-1 | Specific activity, SEQ ID NO: 2 (enzyme of SEQ ID NO:2 [3]; [13]): 8.8^b mU.mg^-1 | Specific activity, SEQ ID NO: 3 (enzyme of SEQ ID NO:3 [2]; [13]): 90.3^b mU.mg^-1
Compound: CC1CCCC1=O (stereo not shown)

Specific activity, SEQ ID NO: 1 (enzyme of SEQ ID NO:1 [1]; [13]): 75.2^b mU.mg^-1 | Specific activity, SEQ ID NO: 2 (enzyme of SEQ ID NO:2 [3]; [14]): 231.9^a mU.mg^-1 | Specific activity, SEQ ID NO: 3 (enzyme of SEQ ID NO:3 [2]; [14]): 159.4^a mU.mg^-1
Compound: CCC(C)C=O (stereo not shown) [drawing 148]

Specific activity, SEQ ID NO: 1 (enzyme of SEQ ID NO:1 [1]; [14]): 85.2^a mU.mg^-1 | Specific activity, SEQ ID NO: 2 (enzyme of SEQ ID NO:2 [3]; [13]): 20.4^b mU.mg^-1 | Specific activity, SEQ ID NO: 3 (enzyme of SEQ ID NO:3 [2]; [13]): 170.1^b mU.mg^-1
Compound: CC1CCC(=O)CC1

reduction of cyclic imine by enzyme of SEQ ID NO:1 (in words) (enzyme of SEQ ID NO:1 [9]): able to catalyze | reduction of cyclic imine by enzyme of SEQ ID NO:2 (in words) (enzyme of SEQ ID NO:2 [10]): able to catalyze | reduction of cyclic imine by enzyme of SEQ ID NO:3 (in words) (enzyme of SEQ ID NO:3 [11]): able to catalyze | reduction of cyclic imine by enzyme of SEQ ID NO:4 (in words) (enzyme of SEQ ID NO:4 [12]): able to catalyze
Compound: CC1=NCCC1

The next lines start with the molecule.

Compound: CC(=O)CC(N)C(=O)O (stereo not shown) [2-amino-4-oxopentanoic acid]
activity of enzyme of SEQ ID NO:1 towards the substrate (in words) (enzyme of SEQ ID NO:1 [1]): inactive | activity of enzyme of SEQ ID NO:2 towards the substrate (in words) (enzyme of SEQ ID NO:2 [3]): inactive | activity of enzyme of SEQ ID NO:3 towards the substrate (in words) (enzyme of SEQ ID NO:3 [2]): inactive | activity of enzyme of SEQ ID NO:4 towards the substrate (in words) (enzyme of SEQ ID NO:4 [4]): inactive

Compound: CC(=O)CCC(=O)O [4-oxopentanoic acid]
activity of enzyme of SEQ ID NO:1 towards the substrate (in words) (enzyme of SEQ ID NO:1 [1]): inactive | activity of enzyme of SEQ ID NO:2 towards the substrate (in words) (enzyme of SEQ ID NO:2 [3]): inactive | activity of enzyme of SEQ ID NO:3 towards the substrate (in words) (enzyme of SEQ ID NO:3 [2]): inactive | activity of enzyme of SEQ ID NO:4 towards the substrate (in words) (enzyme of SEQ ID NO:4 [4]): inactive

Compound: CC1CCCCC1=O (racemic) [2-methylcyclohexanone]
Specific activity, SEQ ID NO: 1 (enzyme of SEQ ID NO:1 [1]; [13]): 175.3 mU.mg^-1 | Specific activity, SEQ ID NO: 1 (enzyme of SEQ ID NO:1 [1]; 0.2 mM NADPH (best of NADH/NADPH), listed as drawing 132): 175.3^b mU.mg^-1 | Specific activity, SEQ ID NO: 2 (enzyme of SEQ ID NO:2 [3]; [13]): 14.8^b mU.mg^-1 | Specific activity, SEQ ID NO: 3 (enzyme of SEQ ID NO:3 [2]; [14]): 337.0 mU.mg^-1 | Specific activity, SEQ ID NO: 3 (enzyme of SEQ ID NO:3 [2]; 0.2 mM NADH (best of NADH/NADPH), listed as drawing 132): 337.0a mU.mg^-1 | specific activity of PheDH-AmDH K77S/N276L (PheDH-AmDH K77S/N276L): 19.3 mU·mg^−1

Compound: CCCC(C)=O [drawing 142]
Specific activity, SEQ ID NO: 1 (enzyme of SEQ ID NO:1 [1]; [13]): 9.0^b mU.mg^-1 | Specific activity, SEQ ID NO: 2 (enzyme of SEQ ID NO:2 [3]; [13]): 6.4^b mU.mg^-1 | Specific activity, SEQ ID NO: 3 (enzyme of SEQ ID NO:3 [2]; [13]): 51.2^b mU.mg^-1

Compound: CC(C)C=O [2-methylpropanal]
Specific activity, SEQ ID NO: 1 (enzyme of SEQ ID NO:1 [1]; [14]): 556.5 mU.mg^-1 | Specific activity, SEQ ID NO: 1 (enzyme of SEQ ID NO:1 [1]; [15]): 556.5^a mU.mg^-1 | Specific activity, SEQ ID NO: 2 (enzyme of SEQ ID NO:2 [3]; [14]): 119.2^a mU.mg^-1 | Specific activity, SEQ ID NO: 3 (enzyme of SEQ ID NO:3 [2]; [14]): 541.0 mU.mg^-1 | Specific activity, SEQ ID NO: 3 (enzyme of SEQ ID NO:3 [2]; [15]): 541.0^a mU.mg^-1 | Specific activity, SEQ ID NO: 1 (enzyme of SEQ ID NO:1 [5]; [16]): 144.5 mU.mg-^1 | activity of enzyme of SEQ ID NO:1 on the substrate with methylamine (in words) (enzyme of SEQ ID NO:1 [5]; methylamine as amine source): active | Specific activity, SEQ ID NO: 2 (enzyme of SEQ ID NO:2 [6]; [16]): 150.2 mU.mg-^1 | activity of enzyme of SEQ ID NO:2 on the substrate with methylamine (in words) (enzyme of SEQ ID NO:2 [6]; methylamine as amine source): active | Specific activity, SEQ ID NO: 3 (enzyme of SEQ ID NO:3 [7]; [16]): 851.3 mU.mg-^1 | activity of enzyme of SEQ ID NO:3 on the substrate with methylamine (in words) (enzyme of SEQ ID NO:3 [7]; methylamine as amine source): active | Specific activity, SEQ ID NO: 4 (enzyme of SEQ ID NO:4 [8]; [16]): 30.3 mU.mg-^1 | activity of enzyme of SEQ ID NO:4 on the substrate with methylamine (in words) (enzyme of SEQ ID NO:4 [8]; methylamine as amine source): active | Specific activity, SEQ ID NO: 5 (enzyme of SEQ ID NO:5; [16]): 262.6 mU.mg-^1 | activity of enzyme of SEQ ID NO:5 on the substrate with methylamine (in words) (enzyme of SEQ ID NO:5; methylamine as amine source): active

Compound: O=Cc1ccccc1
Detection of the expected compound, SEQ ID NO: 4 (enzyme of SEQ ID NO:4 [4]; ammonia as amine source, pH 9.5, 25° C.): d

Compound: CCCC(=O)CC
Specific activity, SEQ ID NO: 1 (enzyme of SEQ ID NO:1 [1]; [13]): 6.8^b mU.mg^-1 | Specific activity, SEQ ID NO: 3 (enzyme of SEQ ID NO:3 [2]; [13]): 28.1^b mU.mg^-1

Compound: CC1CCCC(=O)C1 (racemic) [3-methylcyclohexanone]
Specific activity, SEQ ID NO: 1 (enzyme of SEQ ID NO:1 [1]; [13]): 160.9 mU.mg^-1 | Specific activity, SEQ ID NO: 1 (enzyme of SEQ ID NO:1 [1]; [17]): 160.9^b mU.mg^-1 | Specific activity, SEQ ID NO: 2 (enzyme of SEQ ID NO:2 [3]; [13]): 37.0^b mU.mg^-1 | Specific activity, SEQ ID NO: 3 (enzyme of SEQ ID NO:3 [2]; [13]): 206.5 mU.mg^-1 | Specific activity, SEQ ID NO: 3 (enzyme of SEQ ID NO:3 [2]; [17]): 206.5^b mU.mg^-1 | specific activity of PheDH-AmDH K77S/N276L (PheDH-AmDH K77S/N276L): 41.1 mU·mg^−1

Compound: CC(=O)C1CCCCC1
Specific activity, SEQ ID NO: 1 (enzyme of SEQ ID NO:1 [1]; [13]): 2.1^b mU.mg^-1 | Specific activity, SEQ ID NO: 3 (enzyme of SEQ ID NO:3 [2]; [13]): 64.0^b mU.mg^-1

— US11118200B2, “Method for preparing amines from aldehydes and ketones by biocatalysis” (COMMISSARIAT A L'ENERGIE ATOMIQUE ET AUX ENERGIES …, priority 2017, dated 2021)
